Assay results reported in PMC4739419, “Mutations in the nucleotide binding and hydrolysis domains of Helicobacter pylori MutS2 lead to altered biochemical activities and inactivation of its in vivo function” (BMC Microbiology, 2016).

What was measured:
[1] = target: T1, HpMutS2-E413A (Helicobacter pylori, UniProt O25338, E413A); test: Tryptophan fluorescence-quenching nucleotide binding assay; settings: no divalent metal ions, protein 1 μM, 25 °C; read-out: Kd (dissociation constant)
T1 construct: (A) HpMutS2-E413A (1-762): Mol. wt; (kDa): 87.7; His6 (C); made in house; host or cells: E. coli Rosetta (DE3) pLysS
T1 sequence (O25338 1-762 E413A): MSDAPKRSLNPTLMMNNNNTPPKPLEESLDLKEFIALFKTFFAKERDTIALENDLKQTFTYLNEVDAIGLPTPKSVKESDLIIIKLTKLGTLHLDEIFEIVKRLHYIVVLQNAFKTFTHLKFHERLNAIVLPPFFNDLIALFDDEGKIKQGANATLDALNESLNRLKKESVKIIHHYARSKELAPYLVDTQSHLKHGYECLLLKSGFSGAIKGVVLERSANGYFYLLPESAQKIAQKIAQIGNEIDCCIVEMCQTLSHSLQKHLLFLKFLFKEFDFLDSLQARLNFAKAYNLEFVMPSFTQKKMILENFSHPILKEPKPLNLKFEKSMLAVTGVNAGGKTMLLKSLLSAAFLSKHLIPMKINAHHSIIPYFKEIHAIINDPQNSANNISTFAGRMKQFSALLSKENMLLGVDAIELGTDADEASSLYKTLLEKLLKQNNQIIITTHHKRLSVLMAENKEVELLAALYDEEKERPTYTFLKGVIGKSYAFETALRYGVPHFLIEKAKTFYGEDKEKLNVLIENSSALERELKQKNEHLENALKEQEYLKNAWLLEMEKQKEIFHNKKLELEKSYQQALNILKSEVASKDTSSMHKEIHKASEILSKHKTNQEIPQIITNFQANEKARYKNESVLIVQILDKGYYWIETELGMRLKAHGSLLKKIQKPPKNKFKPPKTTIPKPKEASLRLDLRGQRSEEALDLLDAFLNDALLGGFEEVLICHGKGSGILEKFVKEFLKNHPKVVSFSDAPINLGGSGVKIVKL
Procedure: (§1) Next, the ATP hydrolysing abilities of HpMutS2-G338R and HpMutS2-E413A were tested and compared to that of wild-type HpMutS2. […] Therefore, to determine the nucleotide binding efficiencies of HpMutS2, HpMutS2-G338R, and HpMutS2-E413A, intrinsic fluorescence properties of these proteins were exploited. HpMutS2 has two tryptophan residues at positions 551 and 644. A fluorescence-quenching assay was used to determine the ATP and ADP binding affinities of HpMutS2 and its mutants. Quenching of the Trp fluorescence was recorded upon titration with ATP and ADP in absence of any divalent metal ions. Saturation isotherms generated from the changes in the fluorescence emission spectra of HpMutS2, HpMutS2-G338R, and HpMutS2-E413A were used to calculate the dissociation constants for ATP and ADP (Figs. 2a, b and c respectively).
(§2) Fig. 2 Nucleotide binding affinities of a HpMutS2 b HpMutS2-G338R and c HpMutS2-E413A. Tryptophan fluorescence assays described in the Methods section were used to determine the nucleotide binding affinities of proteins.
(§3) Fluorescence spectroscopy analysis of HpMutS2 was carried out based on the intrinsic fluorescent signal of tryptophan. The proteins were dialyzed in buffer B (50 mM Tris pH 8.0 and 100 mM NaCl) for 4–6 h with at least two changes of the buffer. Fluorescence intensities were measured on a Shimadzu, RF 5000 spectrofluorimeter using a 1-cm stirred quartz cuvette at 25 °C. The emission spectra were recorded over a wavelength of 300–400 nm with an excitation wavelength of 280 nm. To measure the dissociation constants for ATP and ADP, small aliquots of cofactor were added to proteins (1 μM), and spectra were recorded. Each spectra recorded was an average of three scans. The maximum fluorescence intensities observed at around 340 nm were selected for calculating the difference in intrinsic fluorescence of protein alone and in the presence of ligand. Control titrations were conducted and all the fluorescence emission spectra were corrected by subtracting control spectra. The dissociation constants were calculated graphically using a plot of ΔF/ΔFmax versus ligand concentration. ΔF is the magnitude of the difference between the observed fluorescence intensity at a given concentration of ligand and the fluorescence intensity in the absence of ligand and ΔFmax is the difference at saturating concentration of ligand.

[2] = target: T2, HpMutS2-G338R (Helicobacter pylori, UniProt O25338, G338R); test: as above; settings: no divalent metal ions, protein 1 μM, 25 °C; read-out: Kd (dissociation constant)
T2 construct: (A) HpMutS2-G338R (1-762): Mol. wt; (kDa): 87.9; His6 (C); made in house; host or cells: E. coli Rosetta (DE3) pLysS
T2 sequence (O25338 1-762 G338R): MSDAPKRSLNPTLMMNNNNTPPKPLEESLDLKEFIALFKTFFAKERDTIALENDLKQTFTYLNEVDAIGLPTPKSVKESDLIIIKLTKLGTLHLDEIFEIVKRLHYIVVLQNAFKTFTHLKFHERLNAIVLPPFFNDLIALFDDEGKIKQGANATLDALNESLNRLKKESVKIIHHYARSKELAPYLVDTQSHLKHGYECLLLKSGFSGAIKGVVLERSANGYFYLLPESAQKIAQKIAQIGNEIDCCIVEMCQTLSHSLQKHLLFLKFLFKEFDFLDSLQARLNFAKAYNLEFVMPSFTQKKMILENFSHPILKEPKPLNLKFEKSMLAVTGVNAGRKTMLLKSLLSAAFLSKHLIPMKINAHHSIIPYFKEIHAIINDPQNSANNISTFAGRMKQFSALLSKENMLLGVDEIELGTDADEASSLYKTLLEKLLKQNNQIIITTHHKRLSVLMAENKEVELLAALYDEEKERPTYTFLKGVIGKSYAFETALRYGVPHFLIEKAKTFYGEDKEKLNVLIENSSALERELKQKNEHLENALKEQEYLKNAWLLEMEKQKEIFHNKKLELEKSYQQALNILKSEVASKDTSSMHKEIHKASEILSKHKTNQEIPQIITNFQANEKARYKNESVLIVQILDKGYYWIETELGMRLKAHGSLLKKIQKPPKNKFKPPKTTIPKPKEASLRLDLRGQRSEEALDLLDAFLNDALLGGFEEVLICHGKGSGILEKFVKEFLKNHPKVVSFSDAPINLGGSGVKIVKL
Procedure: as §1, §2, §3

[3] = target: T3, HpMutS2 (Helicobacter pylori, UniProt O25338); test: as above; settings: for Kd: no divalent metal ions, protein 1 μM, 25 °C, read-out: Kd (dissociation constant)
T3 construct: (A) HpMutS2 (1-762): Mol. wt; (kDa): 87.8; His6 (C); made in house; host or cells: E. coli Rosetta (DE3) pLysS
Procedure: as §1, §2, §3

[4] = target: T4, ssDNA-HpMutS2 complex (Helicobacter pylori, UniProt O25338); test: Chase experiment on preformed nucleoprotein complex; format: binding; settings: highest concentration of ATP used (0.25–5 mM)
T4 construct: (A) HpMutS2 (1-762): Mol. wt; (kDa): 87.8; His6 (C); made in house; host or cells: E. coli Rosetta (DE3) pLysS
T4 sequence (O25338 1-762): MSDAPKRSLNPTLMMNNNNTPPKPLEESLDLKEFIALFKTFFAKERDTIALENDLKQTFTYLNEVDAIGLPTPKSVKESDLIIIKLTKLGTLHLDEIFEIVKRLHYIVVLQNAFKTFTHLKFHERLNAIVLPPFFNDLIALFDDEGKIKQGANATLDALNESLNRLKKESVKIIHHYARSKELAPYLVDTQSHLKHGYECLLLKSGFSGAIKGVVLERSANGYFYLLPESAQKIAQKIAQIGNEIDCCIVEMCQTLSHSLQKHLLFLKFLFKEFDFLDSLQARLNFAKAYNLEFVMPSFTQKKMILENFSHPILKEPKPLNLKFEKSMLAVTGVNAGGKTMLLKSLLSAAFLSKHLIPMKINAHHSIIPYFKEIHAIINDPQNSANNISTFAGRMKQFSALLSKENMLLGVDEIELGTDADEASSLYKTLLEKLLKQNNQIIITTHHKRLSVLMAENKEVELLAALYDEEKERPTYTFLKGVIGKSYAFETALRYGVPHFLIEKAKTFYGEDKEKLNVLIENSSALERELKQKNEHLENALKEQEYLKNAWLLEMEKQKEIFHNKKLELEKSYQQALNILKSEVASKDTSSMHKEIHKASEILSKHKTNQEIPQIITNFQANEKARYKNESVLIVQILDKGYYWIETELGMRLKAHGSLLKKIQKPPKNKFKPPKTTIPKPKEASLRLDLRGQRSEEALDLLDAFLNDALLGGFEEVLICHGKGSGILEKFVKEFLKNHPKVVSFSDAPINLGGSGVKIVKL

[5] = target: T5, HpMutS2 (Helicobacter pylori 26695, UniProt O25338 1-762); test: EMSA; 1 mM ATPgS; EMSA: 0.16 nM DNA, buffer A (50 mM Tris pH 8.0, 50 mM NaCl, 1 mM DTT per Fig. S3 legend) with 0.1 ug/ul BSA, NaCl 110 mM, no divalent metal stated, 30 min on ice, 8% native PAGE at 4 C; nucleotides 1 mM; Hill-slope fit; settings: protein: recombinant; tags: C-terminal His6; chain copies: 4; label: 5'-32P
T5 sequence: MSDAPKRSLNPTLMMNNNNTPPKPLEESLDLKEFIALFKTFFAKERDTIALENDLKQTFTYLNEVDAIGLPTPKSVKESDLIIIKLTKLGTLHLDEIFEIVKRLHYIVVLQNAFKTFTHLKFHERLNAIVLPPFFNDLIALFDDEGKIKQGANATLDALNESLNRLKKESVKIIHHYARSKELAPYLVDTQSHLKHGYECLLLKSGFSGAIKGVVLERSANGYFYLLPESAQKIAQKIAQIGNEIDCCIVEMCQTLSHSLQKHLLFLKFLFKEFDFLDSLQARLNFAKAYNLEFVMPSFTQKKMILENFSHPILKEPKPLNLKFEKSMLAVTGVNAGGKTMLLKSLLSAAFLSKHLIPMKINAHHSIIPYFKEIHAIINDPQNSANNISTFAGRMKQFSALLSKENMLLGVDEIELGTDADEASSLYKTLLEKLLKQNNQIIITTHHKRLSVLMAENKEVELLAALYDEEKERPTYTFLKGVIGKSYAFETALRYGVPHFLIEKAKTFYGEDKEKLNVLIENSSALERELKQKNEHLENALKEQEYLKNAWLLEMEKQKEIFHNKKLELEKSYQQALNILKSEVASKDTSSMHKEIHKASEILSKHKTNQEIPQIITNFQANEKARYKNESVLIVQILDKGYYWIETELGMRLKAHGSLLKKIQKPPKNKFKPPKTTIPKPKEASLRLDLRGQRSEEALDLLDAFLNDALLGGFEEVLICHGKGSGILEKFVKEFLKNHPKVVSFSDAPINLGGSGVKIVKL

[6] = target: HpMutS2-E413A (Helicobacter pylori 26695, UniProt O25338 1-762, E413A); test: EMSA; no nucleotide; no plateau, value not accurate; EMSA: 0.16 nM DNA, buffer A (50 mM Tris pH 8.0, 50 mM NaCl, 1 mM DTT per Fig. S3 legend) with 0.1 ug/ul BSA, NaCl 110 mM, no divalent metal stated, 30 min on ice, 8% native PAGE at 4 C; nucleotides 1 mM; Hill-slope fit; settings: protein: recombinant; tags: C-terminal His6; chain copies: 4; label: 5'-32P
[7] = target: T6, HpMutS2-G338R (Helicobacter pylori 26695, UniProt O25338 1-762, G338R); test: EMSA; 1 mM ATP; EMSA: 0.16 nM DNA, buffer A (50 mM Tris pH 8.0, 50 mM NaCl, 1 mM DTT per Fig. S3 legend) with 0.1 ug/ul BSA, NaCl 110 mM, no divalent metal stated, 30 min on ice, 8% native PAGE at 4 C; nucleotides 1 mM; Hill-slope fit; settings: protein: recombinant; tags: C-terminal His6; chain copies: 4; label: 5'-32P
[8] = target: T5, HpMutS2; test: EMSA; no nucleotide; EMSA: 0.16 nM DNA, buffer A (50 mM Tris pH 8.0, 50 mM NaCl, 1 mM DTT per Fig. S3 legend) with 0.1 ug/ul BSA, NaCl 110 mM, no divalent metal stated, 30 min on ice, 8% native PAGE at 4 C; nucleotides 1 mM; Hill-slope fit; settings: protein: recombinant; tags: C-terminal His6; chain copies: 4; label: 5'-32P
[9] = target: T6, HpMutS2-G338R; test: as above; settings: protein: recombinant; tags: C-terminal His6; chain copies: 4; label: 5'-32P
[10] = target: T5, HpMutS2; test: EMSA; 1 mM ADP; EMSA: 0.16 nM DNA, buffer A (50 mM Tris pH 8.0, 50 mM NaCl, 1 mM DTT per Fig. S3 legend) with 0.1 ug/ul BSA, NaCl 110 mM, no divalent metal stated, 30 min on ice, 8% native PAGE at 4 C; nucleotides 1 mM; Hill-slope fit; settings: protein: recombinant; tags: C-terminal His6; chain copies: 4; label: 5'-32P
[11] = target: T6, HpMutS2-G338R; test: as above; settings: protein: recombinant; tags: C-terminal His6; chain copies: 4; label: 5'-32P

| Molecule | Kd [1] [nM] | Kd [2] [nM] | Kd [3] [nM] | dissociation of ssDNA from preformed complex [4] | Kd value, fold less than Km value ([3]; wild-type HpMutS2) | Kd [5] [nM] | Kd [6] [nM] | Kd [7] [nM] | Kd [8] [nM] | Kd [9] [nM] | Kd [10] [nM] | Kd [11] [nM] |
| --- | --- | --- | --- | --- | --- | --- | --- | --- | --- | --- | --- | --- |
| Nc1ncnc2c1ncn2[C@@H]1O[C@H](COP(=O)(O)OP(=O)(O)O)[C@@H](O)[C@H]1O [ADP] | 239000 ± 82900 | 318000 ± 68500 | 149000 ± 31800 |  |  |  |  |  |  |  |  |  |
| Nc1ncnc2c1ncn2[C@@H]1O[C@H](COP(=O)(O)OP(=O)(O)OP(=O)(O)O)[C@@H](O)[C@H]1O [ATP] | 220000 ± 54200 | 409000 ± 70400 | 167000 ± 24300 | ~ 20% | ~ 2.4 fold |  |  |  |  |  |  |  |
| ssDNA 63-mer (ODN4) (ssDNA) DNA: ATCGATAGTCGGATCCTCCAGACAGCTCCATGTAGCAAGGCACTGGTAGAATTCGGCAGCGTC |  |  |  |  |  | 11.4 ± 0.19 | ~73.8 | 30.7 ± 3.43 | 21.5 ± 2.28 | 32.4 ± 3.32 | 17.3 ± 2.89 | 23.9 ± 2.91 |
